Strand notation (5' to 3'): a small letter for the sugar, then the base; units joined by * are phosphorothioate-linked, units joined directly phosphodiester-linked; [ ] holds rarer units or linkages, { } end groups; capitals alone tell only the bases. k = constrained ethyl (cEt); [5mC] = 5-methylcytosine; d = 2'-deoxy (DNA)
The substances below were run on Yap1 mRNA (assay: Antisense inhibition of human Yap1 in A-431 cells by cEt gapmers, single dose (Example 3, RTS36584)). Settings: Table 8; A-431 cells, 5,000 cells per well, free uptake, 2,000 nM, approximately 48 hours; RTS36584; normalized to RIBOGREEN; Yap1 mRNA relative to untreated control cells.
Type: cell-based
Method in brief: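 Human epidermoid A-431 cells take up gapmer (2,000 nM, free uptake, ~48 h); Yap1 transcript is then assayed by qRT-PCR with RiboGreen normalization and reported relative to untreated cells. Gapmers carry cEt-modified wings, phosphorothioate linkages and 5-methylcytosine throughout.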
In the case of “958403 (antisense k[5mC]*kA*kG*dT*dT*dT*dA*dT*dG*dT*dA*dG*dT*kA*kG*kT) [Compound 958403]”, the “YAP1 (% UTC)” value is reported as 5 % UTC. In the case of “958407 (antisense kA*kA*kT*dA*d[5mC]*dT*dG*dA*dT*d[5mC]*dT*dG*d[5mC]*kA*kG*k[5mC]) [Compound 958407]”, the “YAP1 (% UTC)” value is reported as 35 % UTC. In the case of “958373 (antisense kA*kG*kG*dT*dG*d[5mC]*dT*dA*dG*d[5mC]*dT*dG*dG*kT*kG*k[5mC]) [Compound 958373]”, the “YAP1 (% UTC)” value is reported as 8 % UTC. For “958382 (antisense kT*kT*k[5mC]*d[5mC]*dT*d[5mC]*dT*dG*d[5mC]*dG*d[5mC]*dG*d[5mC]*k[5mC]*k[5mC]*kG) [Compound 958382]”, the “YAP1 (% UTC)” value was 111 % UTC. With “958398 (antisense kG*k[5mC]*kA*dG*dG*d[5mC]*dT*dA*dT*dT*dA*dA*dG*k[5mC]*kT*kG) [Compound 958398]” the “YAP1 (% UTC)” value was 76 % UTC.

Same assay, conditions: Table 9; A-431 cells, 5,000 cells per well, free uptake, 2,000 nM, approximately 48 hours; RTS36584; normalized to RIBOGREEN; Yap1 mRNA relative to untreated control cells
For “958606 (antisense kT*k[5mC]*k[5mC]*dA*d[5mC]*d[5mC]*dT*dG*dA*dG*d[5mC]*dA*d[5mC]*kT*k[5mC]*kA) [Compound 958606]”, the “YAP1 (% UTC)” value was 31 % UTC. In the case of “958681 (kA*kA*kT*dT*dA*dA*d[5mC]*dA*d[5mC]*d[5mC]*dT*dG*dA*kG*k[5mC]*kT; antisense) [Compound 958681]”, the “YAP1 (% UTC)” value is reported as 84 % UTC. With “958766 (antisense kT*kA*kA*d[5mC]*dA*dT*dA*dT*dG*dT*d[5mC]*dT*dA*k[5mC]*kT*k[5mC]) [Compound 958766]” the “YAP1 (% UTC)” value was 23 % UTC. With “958621 (antisense kA*kA*k[5mC]*dG*dA*dG*dG*dG*dT*d[5mC]*dA*dA*dG*k[5mC]*k[5mC]*kT) [Compound 958621]” the “YAP1 (% UTC)” value was 29 % UTC. With “958726 (antisense k[5mC]*kT*kG*dT*d[5mC]*dA*dG*dT*dT*dA*dT*d[5mC]*d[5mC]*kT*kA*kT) [Compound 958726]” the “YAP1 (% UTC)” value was 3 % UTC. With “958816 (kG*kT*kG*dA*dT*dA*dA*d[5mC]*dA*dT*dA*dT*d[5mC]*k[5mC]*k[5mC]*kA; antisense) [Compound 958816]” the “YAP1 (% UTC)” value was 71 % UTC.

Same assay, conditions: Table 10; A-431 cells, 5,000 cells per well, free uptake, 2,000 nM oligonucleotide, approx. 48 hours; primer probe set RTS36584; Yap1 mRNA normalized to RIBOGREEN, percent of untreated control
With “958607 (antisense k[5mC]*kA*kA*d[5mC]*dA*dT*dG*d[5mC]*dT*dT*dG*d[5mC]*dG*kA*kG*kG) [Compound 958607]” the “YAP1 (% UTC)” value was 11 % UTC. With “958537 (k[5mC]*kA*kG*dG*dG*dT*d[5mC]*dA*dA*dT*dT*dT*dT*k[5mC]*kA*kG; antisense) [Compound 958537]” the “YAP1 (% UTC)” value was 3 % UTC. With “958632 (antisense k[5mC]*kT*k[5mC]*d[5mC]*dG*dA*d[5mC]*dA*dG*dG*dA*dG*dA*k[5mC]*kT*kA) [Compound 958632]” the “YAP1 (% UTC)” value was 55 % UTC. “958737 (antisense kG*kG*kA*dA*dT*dA*d[5mC]*dA*dA*dG*d[5mC]*d[5mC]*d[5mC]*kG*kA*kG) [Compound 958737]” was tested, and the “YAP1 (% UTC)” value was 8 % UTC. In the case of “958517 (kT*k[5mC]*kT*dA*dG*dA*dA*d[5mC]*dA*d[5mC]*dT*dA*dA*kA*k[5mC]*kT; antisense) [Compound 958517]”, the “YAP1 (% UTC)” value is reported as 88 % UTC. In the case of “958457 (antisense kG*kT*k[5mC]*dG*dA*dA*dG*dA*dT*dG*d[5mC]*dT*dG*kA*kG*k[5mC]) [Compound 958457]”, the “YAP1 (% UTC)” value is reported as 5 % UTC.

Same assay, conditions: Table 11; A-431 cells, 5,000 cells per well, free uptake, 2,000 nM oligonucleotide, approx. 48 hours; primer probe set RTS36584; Yap1 mRNA normalized to RIBOGREEN, percent of untreated control
For “958758 (antisense k[5mC]*kT*kA*dT*dT*d[5mC]*dA*dG*dT*dG*dA*dT*d[5mC]*kT*kG*k[5mC]) [Compound 958758]”, the “YAP1 (% UTC)” value was 2 % UTC. In the case of “958513 (kG*k[5mC]*kG*d[5mC]*dT*dA*d[5mC]*d[5mC]*dA*dT*dT*dT*dT*kA*kA*kA; antisense) [Compound 958513]”, the “YAP1 (% UTC)” value is reported as 104 % UTC. “958818 (kG*kT*kT*dG*dT*d[5mC]*dA*dA*d[5mC]*dT*d[5mC]*dT*dA*kG*kG*kG; antisense) [Compound 958818]” was tested, and the “YAP1 (% UTC)” value was 23 % UTC. For “958748 (antisense kA*k[5mC]*kA*dT*dG*dT*dG*dA*d[5mC]*dA*dT*dT*d[5mC]*k[5mC]*kG*kG) [Compound 958748]”, the “YAP1 (% UTC)” value was 83 % UTC.

Same assay, conditions: Table 12; A-431 cells, 5,000 cells per well, free uptake, 2,000 nM modified oligonucleotide, approx. 48 hours; RTS36584; normalized to RIBOGREEN; Yap1 mRNA relative to untreated control cells
For “958804 (antisense kA*kG*kA*dT*dA*dA*dT*d[5mC]*dA*dT*d[5mC]*d[5mC]*dT*k[5mC]*kA*kG) [Compound 958804]”, the “YAP1 (% UTC)” value was 17 % UTC. For “958689 (antisense k[5mC]*kA*kT*dT*dA*dA*dG*dG*dA*dG*dG*dT*dT*kA*kT*kG) [Compound 958689]”, the “YAP1 (% UTC)” value was 87 % UTC. “958634 (antisense kT*k[5mC]*k[5mC]*dT*dT*dA*dA*d[5mC]*d[5mC]*d[5mC]*dG*dG*dG*kT*kT*kT) [Compound 958634]” was tested, and the “YAP1 (% UTC)” value was 61 % UTC.

Same assay, conditions: Table 13; A-431 cells, 5,000 cells per well, free uptake, 2,000 nM modified oligonucleotide, approx. 48 hours; RTS36584; normalized to RIBOGREEN; Yap1 mRNA relative to untreated control cells
In the case of “958655 (kG*k[5mC]*kA*dA*dT*d[5mC]*dT*dG*dT*dG*dA*dT*d[5mC]*k[5mC]*k[5mC]*kA; antisense) [Compound 958655]”, the “YAP1 (% UTC)” value is reported as 12 % UTC. For “958800 (antisense kT*k[5mC]*kG*dA*dT*dA*dA*dT*dA*dT*dA*dT*dG*kG*k[5mC]*kA) [Compound 958800]”, the “YAP1 (% UTC)” value was 22 % UTC. In the case of “958625 (antisense kT*kG*k[5mC]*dT*dG*dG*dG*dA*dT*dT*dG*dA*dT*kA*kT*kT) [Compound 958625]”, the “YAP1 (% UTC)” value is reported as 6 % UTC. For “958680 (kA*kT*kT*dA*dA*d[5mC]*dA*d[5mC]*d[5mC]*dT*dG*dA*dG*k[5mC]*kT*kG; antisense) [Compound 958680]”, the “YAP1 (% UTC)” value was 50 % UTC. For “958570 (kT*kG*kT*dA*dA*dT*dT*d[5mC]*dA*dT*dA*dT*dA*k[5mC]*k[5mC]*k[5mC]; antisense) [Compound 958570]”, the “YAP1 (% UTC)” value was 5 % UTC. With “958650 (kT*k[5mC]*kA*dA*dT*dT*dG*dA*dG*dT*d[5mC]*dT*dG*k[5mC]*kT*kA; antisense) [Compound 958650]” the “YAP1 (% UTC)” value was 3 % UTC.

Same assay, conditions: Table 26; Yap1 mRNA by 3-10-3 cEt gapmers targeting SEQ ID NO.: 1, and 2; percent of untreated control
“1076268 (kG*kT*kA*d[5mC]*dA*dA*dT*dA*dA*dT*dG*d[5mC]*dT*kT*k[5mC]*k[5mC]; antisense) [compound 1076268]” was tested, and the “YAP1 (% UTC)” value was 10 % UTC. In the case of “1075340 (antisense k[5mC]*k[5mC]*k[5mC]*dG*dA*dA*d[5mC]*dA*d[5mC]*d[5mC]*d[5mC]*dA*dA*kA*kA*kA) [compound 1075340]”, the “YAP1 (% UTC)” value is reported as 103 % UTC. In the case of “1076172 (kT*kA*kT*dT*dA*dG*dT*dA*dA*dA*dG*dA*dG*kT*kA*k[5mC]; antisense) [compound 1076172]”, the “YAP1 (% UTC)” value is reported as 98 % UTC.

Same assay, conditions: Table 27; Yap1 mRNA by 3-10-3 cEt gapmers targeting SEQ ID NO.: 1, and 2; percent of untreated control
With “1074541 (k[5mC]*kA*k[5mC]*dT*dA*dT*d[5mC]*d[5mC]*dA*d[5mC]*dA*dG*dT*kA*kA*kT; antisense) [compound 1074541]” the “YAP1 (% UTC)” value was 23 % UTC. For “1075021 (antisense kT*kT*kA*d[5mC]*dA*dA*d[5mC]*d[5mC]*dT*dA*dG*dA*dT*kT*kT*kG) [compound 1075021]”, the “YAP1 (% UTC)” value was 68 % UTC. With “1076237 (kA*k[5mC]*kT*dA*dA*dA*dG*dG*dA*d[5mC]*dA*dA*dA*kG*kG*kT; antisense) [compound 1076237]” the “YAP1 (% UTC)” value was 109 % UTC. In the case of “1074765 (k[5mC]*kA*kA*dT*dG*d[5mC]*dT*dA*d[5mC]*d[5mC]*d[5mC]*dA*dA*kT*kA*k[5mC]; antisense) [compound 1074765]”, the “YAP1 (% UTC)” value is reported as 34 % UTC.

Same assay, conditions: Table 28; Yap1 mRNA as percent of untreated control; 3-10-3 cEt gapmers targeting SEQ ID NO.: 1, and 2
With “1076270 (kT*kA*kA*d[5mC]*dA*dA*dT*dA*dG*dT*dA*dG*dA*k[5mC]*kG*kA; antisense) [compound 1076270]” the “YAP1 (% UTC)” value was 28 % UTC.

Same assay, conditions: Table 29; Yap1 mRNA as percent of untreated control; 3-10-3 cEt gapmers targeting SEQ ID NO.: 1, and 2
With “1074671 (antisense k[5mC]*kA*kA*dG*dT*dA*dG*d[5mC]*dT*dT*dT*dG*dA*kT*k[5mC]*kT) [compound 1074671]” the “YAP1 (% UTC)” value was 8 % UTC. For “1076495 (kG*kA*kT*dT*dA*dG*dT*dG*dA*dA*dA*dA*dT*kT*k[5mC]*k[5mC]; antisense) [compound 1076495]”, the “YAP1 (% UTC)” value was 30 % UTC. “1075887 (antisense kT*kA*kT*dT*dA*d[5mC]*dT*dT*dG*dA*dT*dT*dG*kA*k[5mC]*kA) [compound 1075887]” was tested, and the “YAP1 (% UTC)” value was 10 % UTC. For “1076239 (kG*kT*kT*dT*dA*dA*dA*dA*dA*dA*dA*dA*d[5mC]*kG*kG*kG; antisense) [compound 1076239]”, the “YAP1 (% UTC)” value was 75 % UTC. “1075215 (kA*kA*kA*d[5mC]*dA*dA*dT*dA*dA*dA*dG*dG*dG*kT*k[5mC]*k[5mC]; antisense) [compound 1075215]” was tested, and the “YAP1 (% UTC)” value was 44 % UTC.

Same assay, conditions: Table 34; Yap1 mRNA as percent of untreated control; 3-10-3 cEt gapmers targeting SEQ ID NO: 1 and 2; single dose
With “1075284 (antisense k[5mC]*kT*kT*dT*dT*d[5mC]*dG*dA*dA*dT*dA*dT*dA*kG*kA*kA) [compound 1075284]” the “YAP1 (% UTC)” value was 76 % UTC. “1074964 (antisense kT*kT*kA*dG*dG*d[5mC]*dA*dA*dG*d[5mC]*dA*dG*d[5mC]*kT*kA*kA) [compound 1074964]” was tested, and the “YAP1 (% UTC)” value was 112 % UTC.

Same assay, conditions: Table 35; Yap1 mRNA as percent of untreated control; 3-10-3 cEt gapmers targeting SEQ ID NO: 1 and 2; single dose
In the case of “1075765 (k[5mC]*kT*kT*dA*dA*dG*dG*d[5mC]*dA*dG*d[5mC]*dT*d[5mC]*kT*kA*kT; antisense) [compound 1075765]”, the “YAP1 (% UTC)” value is reported as 58 % UTC. With “1076181 (kT*kA*kT*dA*dA*dT*dT*dA*dG*d[5mC]*d[5mC]*dA*dA*k[5mC]*k[5mC]*kA; antisense) [compound 1076181]” the “YAP1 (% UTC)” value was 26 % UTC.
